US20080194608A1, “6-Phenylhex-5-Enoic Acid Derivatives, Process for the Preparation Thereof, Pharmaceutical Compositions Comprising Them, and Therapeutic Uses Thereof” (priority 2005, published 2008)

Target: T1, chimeric protein PPARγ-Gal4 (Homo sapiens, UniProt P37231)
T1 construct: expressed in transfected cells; host or cells: CV-1 cells (monkey kidney cells)
T1 sequence (P37231 238-503 limits assumed): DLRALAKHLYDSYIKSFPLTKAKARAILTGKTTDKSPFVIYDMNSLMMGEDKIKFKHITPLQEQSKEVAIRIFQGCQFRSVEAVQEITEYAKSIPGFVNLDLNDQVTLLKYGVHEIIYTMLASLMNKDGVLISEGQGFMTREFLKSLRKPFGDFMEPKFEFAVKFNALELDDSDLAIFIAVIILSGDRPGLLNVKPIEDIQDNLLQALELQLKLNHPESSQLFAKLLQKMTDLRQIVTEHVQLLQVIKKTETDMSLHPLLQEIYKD
Experiment: PPARγ-Gal4 transactivation (luciferase reporter) test in CV-1 cells
Assay type: cell-based
Method: The measurement of the PPAR activation was performed according to a technique described by Lehmann et al. (J. Biol. Chem., 270, (1995), 12953-12956).
CV-1 cells (monkey kidney cells) are cotransfected with an expression vector for the chimeric protein PPARγ-Gal4 and with a “reporter” plasmid that allows expression of the luciferase gene placed under the control of a promoter comprising Gal4 response elements.
The cells are seeded in 96-well microplates and cotransfected using a commercial reagent with the reporter plasmid (pG5-tk-pGL3) and the expression vector for the chimeric protein (PPARγ-Gal4). After incubation for 4 hours, whole culture medium (comprising 10% foetal calf serum) is added to the wells. After 24 hours, the medium is removed and replaced with whole medium comprising the test products. The products are left in contact with the cells for 18 hours. The cells are then lysed and the luciferase activity is measured using a luminometer. A PPARγ activation factor can then be calculated by means of the activation of the expression of the reporter gene induced by the product (relative to the control cells that have received no product).
In the absence of the PPARγ ligand binding domain (vector expressing Gal4 alone), the luciferase activity measured in the presence of an agonist is zero.
The following transactivation result was obtained with a concentration of 10 μM on PPARγ.
The transactivation test using the expression of a chimeric protein Gal-4-PPARγ makes it possible to determine also whether an agonist functions as a “full” agonist or as a “partial” agonist in this system.
An agonist is “partial” in this system if it induces a weaker response, i.e. it has lower efficacy, than rosiglitazone, which is a “full” agonist. In concrete terms, in our system, the transactivation obtained at the plateau with a partial agonist will be between 20% and 50% of the maximum response (efficacy) at the plateau of rosiglitazone.

SMILES | Activation factor of the chimeric protein PPARγ-Gal4 (10 μM, CV-1 cells (monkey kidney cells), 18 hours contact, relative to control cells without agonist (=1)) | Concentration to reach the maximum stimulation of the PPARγ chimeric protein (CV-1 cells, Gal-4-PPARγ transactivation test) [µM] | Emax (transactivation at the plateau relative to maximum response (efficacy) of rosiglitazone, CV-1 cells, read-out: Maximum stimulation of the PPARγ chimeric protein obtained with rosiglitazone) [%]
COc1ccccc1OC(CCC=Cc1cc(F)ccc1OCCc1nc(-c2ccccc2)oc1C)C(=O)O (stereo not drawn) [Example 44, 6-{5-fluoro-2-[2-(5-methyl-2-phenyloxazol-4-yl)ethoxy]phenyl}-2-(2-methoxyphenoxy)hex-5-enoic acid] | 5.8 | – | –
CCc1ccc(CCOc2ccc(F)cc2C=CCCC(Oc2ccc(C(F)(F)F)cc2)C(=O)O)nc1 (stereo not drawn) [Example 51, 6-{2-[2-(5-ethylpyridin-2-yl)ethoxy]-5-fluorophenyl)-2-(4-trifluoromethyl-phenoxy)hex-5-enoic acid] | – | 10 | 19
